IC50 data for 23 molecules are collected here from patent publication US9499493B2, “2,4-pyrimidinediamine compounds and their uses” (Rigel Pharmaceuticals, Inc., priority 2002, dated 2016).

Assay [1] concerns cultured human mast cells (CHMC). Description: CHMC low cell density IgE activation: tryptase assay. In kind it is cell-based. To be noted: anti-IgE. The method, boiled down:
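CHMC resuspended in pre-warmed MT buffer at 1000-1500 cells/well (donor-dependent) and preincubated 1 hr at 37° C, then stimulated with anti-IgE for 30 min at 37° C; unstimulated wells got MT alone. Supernatant tryptase activity read with tryptase substrate after 30 min at room temperature.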

For assay [2] the test system is unchanged. Description: CHMC low cell density ionomycin activation: tryptase assay. In kind it is cell-based.

A word on the IC50: it is the concentration at which inhibition is half-maximal. Low readings indicate higher potency, high ones lower potency. For the molecule `CNC(=O)CCn1ncc2ccc(Nc3ncc(F)c(Nc4cccc(O)c4)n3)cc21` [R935294, 5-Fluoro-N4-(3-hydroxyphenyl)-N2-[1-[2-(N-methylaminocarbonyl)ethyl]-indazoline-6-yl]-2,4-pyrimidinediamine], the values for the IC50 in assay [1] and in assay [2] were 388 nM and above 10000 nM, respectively.
Taken in the same sequence, the figures for `CCOC(=O)CCn1ncc2ccc(Nc3nc(Nc4ccc5oc(C(=O)OC)cc5c4)ncc3F)cc21` [R935295, N4-[1-(2-Ethoxycarbonylethyl)indazoline-6-yl]-5-fluoro-N2-(2-methoxycarbonylbenzofur-5-yl)-2,4-pyrimidinediamine] were 1940 nM and above 10000 nM.
Turning to `CNC(=O)CCn1ncc2ccc(Nc3ncc(F)c(Nc4ccc5oc(C(=O)NC)cc5c4)n3)cc21` [R935297, 5-Fluoro-N4-[2-(N-methylaminocarbonyl)benzofuran-5-yl]-N2-[1-[2(N-methylaminocarbonyl)ethyl]-indazoline-6-yl]-2,4-pyrimidinediamine], the IC50 in assay [1] was 7330 nM; in assay [2], above 10000 nM.
For `Cn1cc2cc(Nc3ncc(F)c(Nc4cccc(O)c4)n3)ccc2n1` [R935299, 5-Fluoro-N4-(3-hydroxyphenyl)-N2-(2-methy-indazoline-5-yl)-2,4-pyrimidinediamine], the figures for the IC50 in assay [1] and in assay [2] were 210 nM and above 10000 nM, respectively.
The matching figures for `Cn1cc2cc(Nc3ncc(F)c(Nc4ccc5c(c4)OCCO5)n3)ccc2n1` [R935300, N4-(3,4-Ethyelenedioxyphenyl)-5-fluoro-N2-(2-methy-indazoline-5-yl)-2,4-pyrimidinediamine]: 243 nM and above 10000 nM.
`OCCCn1ncc2cc(Nc3ncc(F)c(Nc4ccc5c(c4)OCCO5)n3)ccc21` [R935302, N4-(3,4-Ethylenedioxyphenyl)-5-fluoro-N2-[1-(3-hydroxypropyl)indazoline-5-yl]-2,4-pyrimidinediamine]: the results for the 50% inhibitory concentration (IC50) in assay [1] and in assay [2] were 189 nM and above 10000 nM, respectively.
For `OCCCn1ncc2cc(Nc3ncc(F)c(Nc4cccc(O)c4)n3)ccc21` [R935304, 5-Fluoro-N4-(3-hydroxyphenyl)-N2-[1-(3-hydroxypropyl)indazoline-5-yl]-2,4-pyrimidinediamine], the IC50 in assay [1] is 188 nM; in assay [2], above 10000 nM.
`CNC(=O)CCn1ncc2cc(Nc3ncc(F)c(Nc4cccc(O)c4)n3)ccc21` [R935305, 5-Fluoro-N4-(3-hydroxyphenyl)-N2-[1-[2(N-methylaminocarbonyl)ethyl]-indazoline-5-yl]-2,4-pyrimidinediamine]: the IC50 in assay [1] is 495 nM; in assay [2] it was above 10000 nM.
Taken in the same sequence, the figures for `OCCCn1ncc2ccc(Nc3ncc(F)c(Nc4ccc5oc(CO)cc5c4)n3)cc21` [R935308, 5-Fluoro-N4-(2-hydroxymethylbenzofur-5-yl)-N2-[1-(3-hydroxypropyl)indazoline-6-yl]-2,4-pyrimidinediamine] were 275 nM and above 10000 nM.
For the molecule `COC(=O)c1ccc(Cn2cc3ccc(Nc4ncc(F)c(Nc5ccc(OC(C)C)cc5)n4)cc3n2)c(OC)c1` [R935338, 5-Fluoro-N4-(4-isopropoxyphenyl)-N2-[2-(2-methoxy-4-carbomethoxybenzyl)indazoline-6-yl]-2,4-pyrimidinediamine], the half-inhibitory concentration (IC50) in assay [1] is 411 nM; in assay [2], above 10000 nM.
Turning to `Cn1ncc2cc(Nc3ncc(F)c(Nc4ccc(Cl)cc4)n3)ccc21` [R935351, N4-(4-Chlorophenyl)-5-fluoro-N2-(1-methyl-indazoline-5-yl)-2,4-pyrimidinediamine], the IC50 in assay [1] and in assay [2] was above 10000 nM in each case.
Take `CCOC(=O)CCn1ncc2cc(Nc3ncc(F)c(Nc4ccc(Cl)cc4)n3)ccc21` [R935353, N4-(4-Chlorophenyl)-N2-[1-(2-ethoxycarbonylethyl)indazoline-5-yl]-5-fluoro-2,4-pyrimidinediamine]: the IC50 in assay [1] and in assay [2] was above 10000 nM in each case.
In the case of `Cn1ncc2cc(Nc3ncc(F)c(Nc4ccc(Cl)c(Cl)c4)n3)ccc21` [R935355, N4-(3,4-Dichlorophenyl)-5-fluoro-N2-(1-methylindazoline-5-yl)-2,4-pyrimidinediamine], the IC50 in assay [1] and in assay [2] was above 10000 nM each time.
In the case of `Cn1ncc2cc(Nc3ncc(F)c(Nc4ccc(F)c(F)c4)n3)ccc21` [R935358, N4-(3,4-Difluorophenyl)-5-fluoro-N2-(1-methylindazoline-5-yl)-2,4-pyrimidinediamine], the IC50 in assay [1] and in assay [2] was above 10000 nM each time.
As for `Cn1ncc2cc(Nc3ncc(F)c(Nc4ccc(OC(F)(F)F)c(Cl)c4)n3)ccc21` [R935359, N4-(3-chloro-4-trifluoromethoxyphenyl)-5-fluoro-N2-(1-methylindazoline-5-yl)-2,4-pyrimidinediamine], the values for the IC50 in assay [1] and in assay [2] were 1030 nM and above 10000 nM, respectively.
For the molecule `CCOC(=O)CCn1ncc2cc(Nc3ncc(F)c(Nc4cccc(OC(F)(F)F)c4)n3)ccc21` [R935360, N2-[1-(2-Ethoxycarbonylethyl)indazoline-5-yl]-5-fluoro-N4-(3-trifluoromethoxyphenyl)-2,4-pyrimidinediamine], the figures for the IC50 in assay [1] and in assay [2] were 903 nM and above 10000 nM, respectively.
Taken in the same sequence, the figures for `CNC(=O)CCn1ncc2cc(Nc3ncc(F)c(Nc4cccc(OC(F)(F)F)c4)n3)ccc21` [R935361, 5-Fluoro-N2-[1-[2(N-methylaminocarbonyl)ethyl]indazoline-5-yl]-N4-(3-trifluoromethoxyphenyl)-2,4-pyrimidinediamine] were 1440 nM and above 10000 nM.
Take `OCCCn1ncc2cc(Nc3ncc(F)c(Nc4cccc(OC(F)(F)F)c4)n3)ccc21` [R935362, 5-Fluoro-N2-[1-(3-hydroxypropyl)indazoline-5-yl]-N4-(3-trifluoromethoxyphenyl)-2,4-pyrimidinediamine]: the figures for the IC50 in assay [1] and in assay [2] were 409 nM and above 10000 nM, respectively.
As for `Fc1cnc(Nc2ccc3[nH]ncc3c2)nc1Nc1cccc(OC(F)(F)F)c1` [R935364, 5-Fluoro-N2-(indazoline-5-yl)-N4-(3-trifluoromethoxyphenyl)-2,4-pyrimidinediamine], the IC50 is 563 nM in assay [1] and above 10000 nM in assay [2].
For `Fc1cnc(Nc2ccc3[nH]ncc3c2)nc1Nc1ccc(Cl)cc1` [R935365, N4-(4-Chlorophenyl)-5-fluoro-N2-(indazoline-5-yl)-2,4-pyrimidinediamine], the figures for the IC50 in assay [1] and in assay [2] were 373 nM and above 10000 nM, respectively.
As for `Fc1cnc(Nc2ccc3[nH]ncc3c2)nc1Nc1ccc(OC(F)(F)F)c(Cl)c1` [R935366, N4-(3-Chloro-4-trifluoromethoxyphenyl)-5-fluoro-N2-(indazoline-5-yl)-2,4-pyrimidinediamine], the IC50 in assay [1] is 216 nM; in assay [2], above 10000 nM.
Taken in the same sequence, the figures for `Fc1cnc(Nc2ccc3cn[nH]c3c2)nc1Nc1ccc(OC(F)(F)F)c(Cl)c1` [R935368, N4-(3-Chloro-4-trifluoromethoxyphenyl)-5-fluoro-N2-(indazoline-6-yl)-2,4-pyrimidinediamine] were 82 nM and above 10000 nM.
Turning to `Fc1cnc(Nc2ccc3[nH]ncc3c2)nc1Nc1ccc(Cl)c(Cl)c1` [R935371, N4-(3,4-Dichlorophenyl)-5-fluoro-N2-(indazoline-5-yl)-2,4-pyrimidinediamine], the results for the IC50 in assay [1] and in assay [2] were 794 nM and above 10000 nM, respectively.
